Test results from patent USRE38117E1, “Trioxane dimer compound having antiproliferative and antitumor activities” (Hauser, Inc., priority 1995, dated 2003).
Like-named read-outs stand apart in the source and are kept apart here.

Columns and labels:
Assay type in all cases: cell-based
[1] = system: 786-0; experiment: NCI 60 cell line screen (SRB), Renal Cancer; details: 786-0 (Renal Cancer)
[2] = system: A498; experiment: NCI 60 cell line screen (SRB), Renal Cancer
[3] = system: MDA-N; experiment: NCI 60 cell line screen (SRB), Breast Cancer
[4] = system: OVCAR-4; experiment: NCI 60 cell line screen (SRB), Ovarian Cancer; details: OVCAR-4 (Ovarian Cancer)
[5] = system: SN12C; experiment: NCI 60 cell line screen (SRB), Renal Cancer
[6] = system: CCRF-CEM; experiment: NCI 60 cell line screen (SRB), Leukemia
[7] = system: HCC-2998; experiment: NCI 60 cell line screen (SRB), Colon Cancer; details: HCC-2998 (Colon Cancer)
[8] = system: HT29; experiment: NCI 60 cell line screen (SRB), Colon Cancer
[9] = system: U251; experiment: NCI 60 cell line screen (SRB), CNS Cancer
[10] = system: M14; experiment: NCI 60 cell line screen (SRB), Melanoma
[11] = system: HL-60(TB); experiment: NCI 60 cell line screen (SRB), Leukemia
[12] = system: KM12; experiment: NCI 60 cell line screen (SRB), Colon Cancer
[13] = system: TK-10; experiment: NCI 60 cell line screen (SRB), Renal Cancer; details: TK-10 (Renal Cancer)
[14] = system: SK-MEL-2; experiment: NCI 60 cell line screen (SRB), Melanoma; details: SK-MEL-2 (Melanoma)
[15] = system: murine keratinocyte cell line PE; experiment: Growth inhibition of PE cells (MTT assay); details: murine keratinocytes, FIGS. 1-9
Method: To determine the inhibitory effect of the trioxane dimers of the present invention on cell proliferation, screening assays were performed on a murine keratinocyte cell line PE. […] PE cell culture medium consisted of Eagle's minimal essential medium without calcium chloride (Whittaker Bioproducts, Walkersville, Ma.) supplemented with 8% chelexed fetal calf serum and 1% antibiotic-antimycotic (Gibco BRL) and the addition of CaCl2 to 0.05 mM Ca^++. […] (St. Louis, Mo.), and TPA was supplied by L. C. Services (Woburn, Ma.). L-[^14C]ornithine ([…]) was from Amersham/Searle Corp. (Arlington Heights, Ill.). Chemical solvents used in all assays of biological activity were of the highest grade commercially available. Growth Inhibition. […] A mitochondrial dehydrogenase reduces MTT to a blue formazan product with an absorbance maximum of 505 nm in DMSO; the number of viable cells can thus be determined spectrophotometrically. PE cells were seeded at a density of 5,000 cells/well in 50 μL of medium into 96-well microtiter plates. […] The plates were fed once at 48 h, with the readdition of the vitamin D3 analogs at this time. […] After 4 h, the MTT was removed and DMSO added to dissolve the blue formazan dye. Using a microtiter plate reader, the […] was then determined and cell number calculated from blank-subtracted absorbance values.

[16] = system: SK-MEL-5; experiment: NCI 60 cell line screen (SRB), Melanoma; details: SK-MEL-5 (Melanoma)
[17] = system: COLO 205; experiment: NCI 60 cell line screen (SRB), Colon Cancer; details: COLO 205 (Colon Cancer)
[18] = system: HCT-15; experiment: NCI 60 cell line screen (SRB), Colon Cancer; details: HCT-15 (Colon Cancer)
[19] = system: NCI-H322M; experiment: NCI 60 cell line screen (SRB), Non-Small Cell Lung Cancer
[20] = system: SNB-75; experiment: NCI 60 cell line screen (SRB), CNS Cancer; details: SNB-75 (CNS Cancer)
[21] = system: NCI-H522; experiment: NCI 60 cell line screen (SRB), Non-Small Cell Lung Cancer
[22] = system: A549/ATCC; experiment: as above
[23] = system: EKVX; experiment: as above
[24] = system: SNB-19; experiment: NCI 60 cell line screen (SRB), CNS Cancer; details: SNB-19 (CNS Cancer)
[25] = system: HOP-92; experiment: NCI 60 cell line screen (SRB), Non-Small Cell Lung Cancer; details: HOP-92 (Non-Small Cell Lung Cancer)
[26] = system: HS 578T; experiment: NCI 60 cell line screen (SRB), Breast Cancer; details: HS 578T (Breast Cancer)
[27] = system: UACC-257; experiment: NCI 60 cell line screen (SRB), Melanoma; details: UACC-257 (Melanoma)

## COC1OC2(C)CCC3CCCC(CCOCCC4CCCC5CCC6(C)OOC45C(OC)O6)C31OO2 (centres unmarked) [Compound 6, Trioxane Ether Dimer]
[1]
  Log10GI50: −5.65 M
  Log10LC50: >−4.00 M
  Log10TGI: −4.53 M
[2]
  Log10GI50: >−4.00 M
  Log10LC50: >−4.00 M
  Log10TGI: >−4.00 M
[3]
  Log10GI50: −6.19 M
  Log10LC50: >−4.00 M
  Log10TGI: >−4.00 M
[4]
  Log10GI50: −5.11 M
  Log10LC50: >−4.00 M
  Log10TGI: >−4.00 M
[5]
  Log10GI50: −5.46 M
  Log10LC50: >−4.00 M
  Log10TGI: >−4.00 M
[6]
  Log10GI50: −6.27 M
  Log10LC50: >−4.00 M
  Log10TGI: −4.61 M
[7]
  Log10GI50: −5.94 M
  Log10LC50: −4.04 M
  Log10TGI: −4.90 M
[8]
  Log10GI50: −6.24 M
  Log10LC50: >−4.00 M
  Log10TGI: >−4.00 M
[9]
  Log10GI50: −6.35 M
  Log10LC50: >−4.00 M
  Log10TGI: >−4.00 M
[10]
  Log10GI50: −5.59 M
  Log10LC50: >−4.00 M
  Log10TGI: >−4.00 M
[11]
  Log10GI50: −6.48 M
  Log10LC50: >−4.00 M
  Log10TGI: −5.77 M
[12]
  Log10GI50: −6.85 M
  Log10LC50: >−4.00 M
  Log10TGI: −4.28 M
[13]
  Log10GI50: −5.60 M
  Log10LC50: >−4.00 M
  Log10TGI: −4.88 M
[14]
  Log10GI50: −5.86 M
  Log10LC50: >−4.00 M
  Log10TGI: −4.13 M
[15]
  antiproliferative activity: the most antiproliferative
[16]
  Log10GI50: −7.39 M
  Log10LC50: −4.15 M
  Log10TGI: −4.90 M
[17]
  Log10GI50: −6.85 M
  Log10LC50: −5.77 M
  Log10TGI: −6.36 M
[18]
  Log10GI50: −7.28 M
  Log10LC50: >−4.00 M
  Log10TGI: >−4.00 M
[19]
  Log10GI50: >−4.00 M
  Log10LC50: >−4.00 M
  Log10TGI: >−4.00 M
[20]
  Log10LC50: >−4.00 M
  Log10TGI: >−4.00 M
[21]
  Log10GI50: −6.13 M
  Log10LC50: >−4.00 M
  Log10TGI: −4.76 M
[22]
  Log10GI50: −5.79 M
  Log10LC50: >−4.00 M
  Log10TGI: >−4.00 M
[23]
  Log10GI50: −5.56 M
  Log10LC50: >−4.00 M
  Log10TGI: >−4.00 M
[24]
  Log10GI50: −5.01 M
  Log10LC50: >−4.00 M
  Log10TGI: >−4.00 M
[25]
  Log10GI50: −5.51 M
  Log10LC50: >−4.00 M
  Log10TGI: −4.17 M
[26]
  Log10LC50: >−4.00 M
  Log10TGI: >−4.00 M
[27]
  Log10GI50: −5.68 M
  Log10LC50: >−4.00 M
  Log10TGI: >−4.00 M

## COC1OC2(C)CCC3CCCC(CCOC(=O)c4ccc(C(=O)OCCC5CCCC6CCC7(C)OOC56C(OC)O7)cc4)C31OO2 (centres unmarked) [Compound 11, Bis-ester Dimer]
[1]
  Log10GI50: −5.41 M
  Log10LC50: >−4.00 M
  Log10TGI: >−4.00 M
[2]
  Log10GI50: >−4.00 M
  Log10LC50: >−4.00 M
  Log10TGI: >−4.00 M
[3]
  Log10GI50: −5.56 M
  Log10LC50: >−4.00 M
  Log10TGI: >−4.00 M
[4]
  Log10GI50: −5.26 M
  Log10LC50: >−4.00 M
  Log10TGI: >−4.00 M
[5]
  Log10GI50: −5.46 M
  Log10LC50: >−4.00 M
  Log10TGI: >−4.00 M
[6]
  Log10GI50: −6.57 M
  Log10LC50: −4.05 M
  Log10TGI: −4.89 M
[7]
  Log10GI50: −4.56 M
  Log10LC50: >−4.00 M
  Log10TGI: >−4.00 M
[8]
  Log10GI50: −5.90 M
  Log10LC50: >−4.00 M
  Log10TGI: >−4.00 M
[9]
  Log10GI50: −6.02 M
  Log10LC50: >−4.00 M
  Log10TGI: >−4.00 M
[10]
  Log10GI50: −5.20 M
  Log10LC50: >−4.00 M
  Log10TGI: >−4.00 M
[11]; HL-60(TB) (Leukemia)
  Log10GI50: −7.42 M
  Log10LC50: −5.26 M
  Log10TGI: −6.58 M
[12]
  Log10GI50: −6.24 M
  Log10LC50: >−4.00 M
  Log10TGI: >−4.00 M
[13]
  Log10GI50: −5.06 M
  Log10LC50: >−4.00 M
  Log10TGI: >−4.00 M
[14]
  Log10GI50: −5.47 M
  Log10LC50: >−4.00 M
  Log10TGI: −5.04 M
[15]
  antiproliferative activity: high antiproliferative activity
[16]
  Log10GI50: −6.00 M
  Log10LC50: >−4.00 M
  Log10TGI: >−4.00 M
[17]
  Log10GI50: −6.31 M
  Log10LC50: −5.17 M
  Log10TGI: −5.71 M
[18]
  Log10GI50: −6.12 M
  Log10LC50: >−4.00 M
  Log10TGI: >−4.00 M
[19]
  Log10GI50: −4.69 M
  Log10LC50: >−4.00 M
  Log10TGI: >−4.00 M
[20]
  Log10GI50: −5.66 M
  Log10LC50: >−4.00 M
[21]
  Log10GI50: −5.66 M
  Log10LC50: >−4.00 M
  Log10TGI: −4.45 M
[22]
  Log10GI50: −5.42 M
  Log10LC50: >−4.00 M
  Log10TGI: >−4.00 M
[23]
  Log10GI50: −5.20 M
  Log10LC50: >−4.00 M
  Log10TGI: >−4.00 M
[24]
  Log10GI50: −5.31 M
  Log10LC50: >−4.00 M
  Log10TGI: >−4.00 M
[25]
  Log10GI50: −4.91 M
  Log10LC50: >−4.00 M
  Log10TGI: >−4.00 M
[26]
  Log10GI50: −4.55 M
  Log10LC50: >−4.00 M
  Log10TGI: >−4.00 M
[27]
  Log10GI50: −5.36 M
  Log10LC50: >−4.00 M
  Log10TGI: >−4.00 M
